Measured values reported in ChEMBL document CHEMBL1150491, “Chemistry and pharmacokinetics of diarylthiophenes and terphenyls as selective COX-2 inhibitors” (Bioorg Med Chem Lett, 1996).
One block for each compound: values may come before it.

Assays:
[1] = biological target: T1, Prostaglandin G/H synthase 1 (Ovis aries, UniProt P05979); experiment: Compound was evaluated for inhibitory activity against ovine Prostaglandin G/H synthase 1
T1 sequence (P05979 whole entry): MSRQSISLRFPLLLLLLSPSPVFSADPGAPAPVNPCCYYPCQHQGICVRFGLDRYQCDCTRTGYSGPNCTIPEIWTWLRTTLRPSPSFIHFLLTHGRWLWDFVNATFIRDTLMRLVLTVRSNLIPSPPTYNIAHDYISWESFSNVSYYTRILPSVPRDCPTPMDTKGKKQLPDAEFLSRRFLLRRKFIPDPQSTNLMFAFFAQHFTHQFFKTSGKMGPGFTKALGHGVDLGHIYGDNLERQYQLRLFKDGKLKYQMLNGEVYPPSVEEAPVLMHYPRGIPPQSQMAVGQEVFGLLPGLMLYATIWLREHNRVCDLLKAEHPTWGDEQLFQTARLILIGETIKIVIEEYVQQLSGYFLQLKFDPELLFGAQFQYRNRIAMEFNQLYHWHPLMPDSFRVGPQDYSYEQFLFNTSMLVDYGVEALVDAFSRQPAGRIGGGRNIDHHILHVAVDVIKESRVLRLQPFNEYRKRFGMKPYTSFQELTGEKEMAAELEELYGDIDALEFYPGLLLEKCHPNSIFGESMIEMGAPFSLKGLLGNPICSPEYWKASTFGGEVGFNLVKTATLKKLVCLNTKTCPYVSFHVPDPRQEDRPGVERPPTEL

[2] = biological target: T2, Prostaglandin G/H synthase 2 (Homo sapiens, UniProt P35354); experiment: Compound was evaluated for inhibitory activity against human Prostaglandin G/H synthase 2
T2 sequence (P35354 whole entry): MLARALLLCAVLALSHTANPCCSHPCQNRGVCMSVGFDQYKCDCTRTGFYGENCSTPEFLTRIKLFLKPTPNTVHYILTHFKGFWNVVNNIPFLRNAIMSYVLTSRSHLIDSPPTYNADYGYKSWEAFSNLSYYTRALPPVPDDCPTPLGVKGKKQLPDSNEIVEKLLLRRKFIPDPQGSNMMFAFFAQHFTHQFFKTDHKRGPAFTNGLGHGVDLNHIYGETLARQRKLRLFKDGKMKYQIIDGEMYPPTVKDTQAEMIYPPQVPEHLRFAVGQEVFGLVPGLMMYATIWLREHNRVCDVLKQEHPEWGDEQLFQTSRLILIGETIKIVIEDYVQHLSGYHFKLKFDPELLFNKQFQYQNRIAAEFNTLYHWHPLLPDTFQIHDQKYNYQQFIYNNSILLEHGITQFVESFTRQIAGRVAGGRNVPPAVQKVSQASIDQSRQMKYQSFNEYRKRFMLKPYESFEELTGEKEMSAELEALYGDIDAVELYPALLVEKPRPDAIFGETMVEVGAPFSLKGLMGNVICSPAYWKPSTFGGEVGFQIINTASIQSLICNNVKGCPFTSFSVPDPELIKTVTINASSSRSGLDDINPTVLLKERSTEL

[3] = Maximum time was evaluated against man at a dose of 10 mg/kg after po administration; type: ADME, organism-based; parameters: dose 10 mg/kg, route oral; conditions: human, in vivo
[4] = Bioavailability was evaluated against Beagle dog at a dose of 15 mg/kg after po administration; type: ADME, organism-based, Canis lupus familiaris; conditions: in vivo
[5] = Maximum concentration was evaluated against man at a dose of 10 mg/kg after po administration; type: ADME, organism-based; parameters: dose 10 mg/kg, route oral; conditions: human, in vivo
[6] = Half life period was evaluated in Sprague-Dawley rats at a dose of 15 mg/kg after po administration; type: ADME, organism-based; parameters: dose 15 mg/kg, route oral; conditions: rat, in vivo
[7] = Maximum concentration in plasma was evaluated in Sprague-Dawley rats at a dose of 15 mg/kg after po administration; type: ADME, organism-based; parameters: dose 15 mg/kg, route oral; conditions: rat
[8] = Maximum concentration was evaluated against Cynomolgus monkey at a dose of 15 mg/kg after po administration; type: ADME, organism-based; parameters: dose 15 mg/kg, route oral; conditions: cercopithecidae, in vivo
[9] = Volume of distribution was evaluated in Sprague-Dawley rats at a dose of 15 mg/kg after iv administration; type: ADME, organism-based; parameters: dose 15 mg/kg, route intravenous; conditions: rat, in vivo, read-out: Vss
[10] = system: Canis familiaris; experiment: Maximum time was evaluated against Beagle dog at a dose of 15 mg/kg after po administration; type: ADME, organism-based, Canis lupus familiaris; parameters: dose 15 mg/kg, route oral; conditions: in vivo
[11] = Bioavailability was evaluated against Cynomolgus monkey at a dose of 15 mg/kg after po administration; type: ADME, organism-based, Macaca fascicularis; conditions: in vivo
[12] = Area under curve was evaluated against Cynomolgus monkey at a dose of 15 mg/kg after po administration; type: ADME, organism-based; parameters: dose 15 mg/kg, route oral; conditions: cercopithecidae, in vivo
[13] = system: Canis familiaris; experiment: Half life period was evaluated against Beagle dog at a dose of 15 mg/kg after po administration; type: ADME, organism-based, Canis lupus familiaris; parameters: dose 15 mg/kg, route oral; conditions: in vivo
[14] = Time taken to reach maximum concentration in plasma was evaluated in Sprague-Dawley rats at a dose of 15 mg/kg after po administration; type: ADME, organism-based; parameters: dose 15 mg/kg, route oral; conditions: rat
[15] = system: Canis familiaris; experiment: Area under curve was evaluated against Beagle dog at a dose of 15 mg/kg after po administration; type: ADME, organism-based, Canis lupus familiaris; parameters: dose 15 mg/kg, route oral; conditions: in vivo
[16] = Area under curve was evaluated against man at a dose of 10 mg/kg after po administration; type: ADME, organism-based; parameters: dose 10 mg/kg, route oral; conditions: human, in vivo
[17] = Half life period was evaluated against Sprague-Dawley rats at a dose of 15 mg/kg after iv administration; type: ADME, organism-based; parameters: dose 15 mg/kg, route intravenous; conditions: rat, in vivo
[18] = system: Canis familiaris; experiment: Maximum concentration was evaluated against Beagle dog at a dose of 15 mg/kg after po administration; type: ADME, organism-based, Canis lupus familiaris; parameters: dose 15 mg/kg, route oral; conditions: in vivo
[19] = Plasma clearance was evaluated in Sprague-Dawley rats at a dose of 15 mg/kg after iv administration; type: ADME, organism-based; parameters: dose 15 mg/kg, route intravenous; conditions: rat
[20] = Oral bioavailability in rat (Sprague-Dawley) (dose 15 mg/kg); type: ADME, organism-based; conditions: in vivo
[21] = Half life period was evaluated against Cynomolgus monkey at a dose of 15 mg/kg after po administration; type: ADME, organism-based; parameters: dose 15 mg/kg, route oral; conditions: cercopithecidae, in vivo
[22] = Half life period was evaluated against man at a dose of 10 mg/kg after po administration; type: ADME, organism-based; parameters: dose 10 mg/kg, route oral; conditions: human, in vivo
[23] = Maximum time was evaluated against Cynomolgus monkey at a dose of 15 mg/kg after po administration; type: ADME, organism-based; parameters: dose 15 mg/kg, route oral; conditions: cercopithecidae, in vivo

IC50 [1]: > 300 µM
IC50 [2]: 66 µM
Structure (SMILES): CS(=O)(=O)c1ccc(-c2cc(Sc3ccccc3)sc2-c2ccc(F)cc2)cc1

IC50 [1]: 12 µM
IC50 [2]: > 300 µM
Structure (SMILES): CS(=O)(=O)c1ccc(-c2cc(CCC(=O)O)sc2-c2ccc(F)cc2)cc1

IC50 [1]: 674 µM
IC50 [2]: 8 µM
Structure (SMILES): CS(=O)(=O)c1ccc(-c2cscc2-c2ccc(F)cc2)cc1

IC50 [1]: > 1000 µM
IC50 [2]: 14 µM
Structure (SMILES): CS(=O)(=O)c1ccc(-c2cc([N+](=O)[O-])sc2-c2ccc(F)cc2)cc1

Tmax [3]: 3 h
bioavailability [4]: 4.4%
Cmax [5]: 60.5 ng/mL
half-life [6]: 16.6 h
Cmax [7]: 2400 ng/mL
Cmax [8]: 698 ng/mL
Vd [9]: 6.3 L/kg
T max [10]: 1 h
bioavailability [11]: 30.4%
AUC [12]: 56 µg·h/mL
T1/2 [13]: 6 h
Tmax [14]: 8 h
AUC [15]: 1.5 µg·h/mL
AUC [16]: 3240 µg·h/mL
half-life [17]: 22 h
Cmax [18]: 411 ng/mL
clearance [19]: 3.63 mL/min/kg
bioavailability [20]: 75%
half-life [21]: 31.8 h
half-life [22]: 292 h
Tmax [23]: 24 h
Structure (SMILES): CS(=O)(=O)c1ccc(-c2cc(Br)sc2-c2ccc(F)cc2)cc1 [DUP-697]

IC50 [1]: 200 µM
IC50 [2]: 130 µM
Structure (SMILES): CCOC(=O)CCc1cc(-c2ccc(S(C)(=O)=O)cc2)c(-c2ccc(F)cc2)s1

IC50 [1]: 293 µM
IC50 [2]: 86 µM
Structure (SMILES): CS(=O)(=O)c1ccc(-c2ccsc2-c2ccc(O)cc2)cc1

IC50 [1]: 6 µM
IC50 [2]: 3 µM
Structure (SMILES): CS(=O)(=O)c1ccc(-c2cc(N)sc2-c2ccc(F)cc2)cc1

IC50 [1]: > 300 µM
IC50 [2]: 200 µM
Structure (SMILES): CS(=O)(=O)c1ccc(-c2cc(S(C)(=O)=O)sc2-c2ccc(F)cc2)cc1

half-life [6]: 12.1 h
Cmax [7]: 8 ng/mL
Vd [9]: 19 L/kg
IC50 [1]: 490 µM
Tmax [14]: 4 h
IC50 [2]: 8 µM
half-life [17]: 14.3 h
clearance [19]: 158 mL/min/kg
bioavailability [20]: 3.4%
Structure (SMILES): CS(=O)(=O)c1ccc(-c2ccsc2-c2ccc(F)cc2)cc1

IC50 [1]: > 300 µM
IC50 [2]: 49 µM
Structure (SMILES): CS(=O)(=O)c1ccc(-c2cc(CC#N)sc2-c2ccc(F)cc2)cc1

IC50 [1]: > 1000 µM
IC50 [2]: 13 µM
Structure (SMILES): Cc1ccc(-c2sccc2-c2ccc(S(C)(=O)=O)cc2)cc1

Cmax [7]: 20 ng/mL
Vd [9]: 16.8 L/kg
IC50 [1]: 80 µM
Tmax [14]: 0.7 h
IC50 [2]: 10 µM
half-life [17]: 19.4 h
clearance [19]: 28.2 mL/min/kg
bioavailability [20]: 0.9%
Structure (SMILES): Cc1cc(-c2ccc(S(C)(=O)=O)cc2)c(-c2ccc(F)cc2)s1

IC50 [1]: 100 µM
IC50 [2]: > 300 µM
Structure (SMILES): CCOC(=O)/C=C/c1cc(-c2ccc(S(C)(=O)=O)cc2)c(-c2ccc(F)cc2)s1

The remaining lines, values behind:

Structure (SMILES): CS(=O)(=O)c1ccc(-c2cscc2-c2ccccc2)cc1
IC50 [1]: > 1000 µM
IC50 [2]: 4 µM

Structure (SMILES): Cc1ccc(-c2cscc2-c2ccc(S(C)(=O)=O)cc2)cc1
IC50 [1]: 438 µM
IC50 [2]: 4 µM

Structure (SMILES): c1ccc(-c2ccsc2-c2ccccc2)cc1
Cmax [7]: 100 ng/mL
Vd [9]: 19.6 L/kg
IC50 [1]: 28 µM
Tmax [14]: 4.2 h
IC50 [2]: > 300 µM
half-life [17]: 4.94 h
clearance [19]: 51.3 mL/min/kg
bioavailability [20]: 20%

Structure (SMILES): COc1ccc(-c2cscc2-c2ccc(S(C)(=O)=O)cc2)cc1
IC50 [1]: > 1000 µM
IC50 [2]: 5 µM

Structure (SMILES): CS(=O)(=O)c1ccc(-c2ccsc2-c2ccccc2)cc1
IC50 [1]: > 1000 µM
IC50 [2]: 4 µM

Structure (SMILES): CS(=O)(=O)c1ccc(-c2cscc2-c2ccc(S(C)(=O)=O)cc2)cc1
IC50 [1]: > 300 µM
IC50 [2]: > 300 µM

Structure (SMILES): CS(=O)(=O)c1ccc(-c2c(-c3ccccc3)sc3c2CCCC3)cc1
IC50 [1]: > 1000 µM
IC50 [2]: 19 µM

Structure (SMILES): CSc1ccc(-c2cscc2-c2ccc(S(C)(=O)=O)cc2)cc1
IC50 [1]: 93 µM
IC50 [2]: 6 µM

Structure (SMILES): CSc1ccc(-c2cscc2-c2ccc(SC)cc2)cc1
IC50 [1]: 15 µM
IC50 [2]: 101 µM

Structure (SMILES): CS(=O)(=O)c1ccc(-c2ccccc2-c2ccccc2)cc1
Cmax [7]: 1430 ng/mL
Vd [9]: 3.08 L/kg
IC50 [1]: > 1000 µM
Tmax [14]: 0.25 h
IC50 [2]: 11 µM
half-life [17]: 1.7 h
clearance [19]: 35.8 mL/min/kg
bioavailability [20]: 60%

Structure (SMILES): COc1ccc(-c2sccc2-c2ccc(S(C)(=O)=O)cc2)cc1
IC50 [1]: 48 µM
IC50 [2]: 5 µM
